{"source": "patent US20250154494A1", "about": "“Microfluidic Co-Encapsulation Device and System and Methods for Identifying T-Cell Receptor Ligands” (JANSSEN BIOTECH, INC., priority 2021, published 2025)", "molecules": {"B1": {"name": "NBVtf: synthetic transcription factor, fusion of NFAT N-terminus, Bob1 octamer-binding domain and VP16 transactivation domain; SEQ ID NO:76 (protein)", "chain": "MPSTSFPVPSKFPLGPAAAVFGRGETLGPAPRAGGTMKSAEEEHYGYASSNVSPALPLPTAHSTLPAPCHNLQTSTPGIIPPADHPSGYGAALDGGPAGYFLSSGHTRPDGAPALESPRIEITSCLGLYHNNNQFFHDVEVEDVLPSSKRSPSTATLSLPSLEAYRDPSCLSPASSLSSRSCNSEASSYESNYSYPYASPQTSPWQSPCVSPKTTDPEEGFPRGLGACTLLGSPRHSPSTSPRASVTEESWLGARSSRPASPCNKRKYSLNGRQPPYSPHHSPTPSPHGSPRVSVTDDSWLGNTTQYTSSAIVAAINALTTDSSLDLGDGVPVKSRKTTLEQPPSVALKVEPVGEDLGSPPPPADFAPEDYSSFQHIRKGGFCDQYLAVPQHPYQWAKPKPLSPTSYMSPTLPALDWQLPGSTSGSGKPGSGEGSTKGMLWQKPTAPEQAPAPARPYQGVRVKEPVKELLRRKRGHASSGAAPAPTAVVLPHQPLATYTTVGPSCLDMEGSVSAVTEEAALCAGWLSQPGGGGSGGGGSGGGGSTAPPTDVSLGDELHLDGEDVAMAHADALDDFDLDMLGDGDSPGPGFTPHDSAPYGALDMADFEFEQMFTDALGIDEYGG"}, "B2": {"name": "P10 promoter: synthetic TCR responsive promoter, SEQ ID NO:60 (nucleic acid)", "DNA": "AGAGATGGGCTAACAGGTATGAGCATGGGAAAAGCATGTTTCAAGAATTTGAGATGTATTTCCCAGAAAAGGAACATGATGAAAATGGTCAGAAAAGGCATTCTTAGGGTCCCCAGATGTCTGCCTTTTCCATTGATTTTCTTTCCTGGTTAATTGCGAGGCTTGCCTCAAGGTGGAAAACAGTATCGGTTTCCACTGGATCACTAGGTCACAGGGTTTGCCTTTTTCCAAACCTGCATCTCAATTTTACCTATGATTTGCATTAAATAACTTTGGAAAAATTGAAGTTCTTGAGAAGCCACCGCGCCCGGCCTCCTCTCCTTTTCCAAATTTATACATTTTGATTGGTGGGGAGATTCCATTATAGGGGCTGGAAAACCCCTTTACCATACCATGAATGTAACTGTACTGTTACAAAGTGGAAAATAACAGTTTCCACTTTTCGCAGCTCTTTGAGAGCAGGACTCTATTTTCCAGTCTCTTTATAAGCTTCATTCATAGTGAAGCTAACAGAAGTTTTTCCATGGTTAGATTGTGCACCGGGCTGTTTTTAAATGTAATATGATTTTCCATTTACTTATTTATCTTTGTAGTTTTATGACAAAGAAAATTTTCTGAGTTACTTTTGTATCCCCACCCCCTTAAAGAAAGGAGGAAAAACTGTTTCATACAGAAGGCGTTAATTGCA"}}, "key": {"[1]": {"system": "T-cells expressing cognate TCR", "format": "cell-based"}, "TCR signaling": {"system": "TCR signaling", "experiment": "Co-culture of Jurkat reporter cells carrying synthetic promoters with peptide-loaded B cells (GFP / HA reporter)", "format": "cell-based", "method": "Sleeping beauty transposon reporter constructs were transfected together with transposases into T cells, 5 to 1 ratio, using the Neon transfection system following the manufacturer's protocol. The voltages used for Jurkat cells were 1350V/[…]/3 pulse, and for SKW-3 cells 1500V, […] and 1 pulse were used as settings. 48-72 hours after transfection, the cells were selected using […] Blasticidin for Jurkat and […] Blasticidin for SKW-3 cells.\nCo-culture experiments were performed using round-bottom 96-well plates. P10-NBV Jurkat and SKW-3 reporter cells and B cells were seeded at a 1:1 ratio into each well. For peptide co-culture experiments, either cognate peptide or mismatched peptide is added to each well and incubated for 16 hours. For minigene-based co-culture experiments, minigene-transduced B cells harboring either the cognate of mismatch minigenes were used. Next day the cells are spun down and stained for Flow cytometry."}}, "data": [{"molecule": "BT1 construct: minigene expression construct with first transmembrane domain of Bcap31 fused to the minigene N-terminus; SEQ ID NO:116 (DNA AVATFLYAEVFVVLLLCIPFI)", "values": [{"measurement": "T-cell activation with 400 AA minigene", "setting": "[1]", "result": "strong T-cell activation even with a 400 AA minigene"}, {"measurement": "stability of T-cell activation over time", "setting": "[1]", "result": "stable T-cell activation over time"}, {"measurement": "strength of minigene-induced T-cell activation", "setting": "[1]", "result": "strong T-cell activation, similar to the positive control"}, {"measurement": "presentation of the TetX_400_1 minigene relative to 2B construct", "setting": "[1]; TT2 TCR", "result": "did not improve the presentation"}]}, {"molecule": "B1", "values": [{"measurement": "reporter gene expression", "setting": "TCR signaling; Jurkat-P10NBV-TT2 cells, BOLETH cells loaded with 0.01 μM cognate peptide", "result": "further improves reporter gene expression"}, {"measurement": "reporter gene expression", "setting": "TCR signaling; Jurkat-P10NBV-TT11 cells, BOLETH cells loaded with 0.1 μM cognate peptide", "result": "further improves reporter gene expression"}]}, {"molecule": "B2", "values": [{"measurement": "GFP and HA reporter gene expression in sleeping beauty constructs", "setting": "TCR signaling; sleeping beauty constructs", "result": "high GFP and HA reporter gene expression"}]}]}
